Patent US20240180921A1, “CDK8/19 INHIBITORS FOR THE TREATMENT OF CYTOKINE STORM” (University of South Carolina, priority 2021, published 2024)

How the values were obtained:
panel of 468 kinases = details: at 2000 nM, cited from earlier work
[1] = system: mouse cytokines associated with cytokine storm (Table 1); assay: RNA-Seq of spleens of LPS-treated humanized mice, mouse cytokines associated with cytokine storm; format: in vivo, humanized CIEA NOG-EXL mice (mouse transcripts); details: 6 hrs after LPS
Description: (§1) To test the effect of CDK8/19 inhibition on LPS-induced cytokine expression in human immune cells, we carried out a study on humanized mice transplanted with human hematopoietic stem cells; such mice contain human blood cells of myeloid and lymphoid lineages as well as mouse blood cells. We have used CIEA NOG-EXL mice (Taconic model #13395) engrafted with human umbilical cord blood-derived CD34+ hematopoietic stem cells 21 weeks before the study. All the mice were female, 25-27 weeks old, and had >45% hCD45+ cells in blood. Eight mice were treated with 1 mg/kg LPS i.p.; this dose was selected based on the finding of (38) that 12.5 μg (˜0.5 mg/kg) produced stronger cytokine induction than 50 μg (˜2 mg/kg) in humanized mice. The first group of LPS-treated mice (n=3) (G1) received vehicle alone by oral gavage 1 hr before LPS, the second group (n=3) received 15u at 30 mg/kg by oral gavage 1 hr before LPS, and the third group (n=2) (G3) received 15u at 30 mg/kg by oral gavage 0.5 hrs after LPS. Blood samples were collected from each mouse one week before LPS dosing. Mice were euthanized 6 hrs after LPS dosing and terminal blood samples were collected for cytokine analysis; in addition, spleens were collected for RNA analysis.
(§2) RNA from spleens of mice of G1-3, euthanized 6 hrs after LPS dosing, was analyzed by RNA-Seq. […]

[2] = system: human cytokines associated with cytokine storm (Table 1); assay: RNA-Seq of spleens of LPS-treated humanized mice, human cytokines associated with cytokine storm; format: in vivo, humanized CIEA NOG-EXL mice (human transcripts); details: 6 hrs after LPS
Description: as §1, §2

48 human cytokines [3] = assay: LPS-induced human cytokines in plasma of humanized mice (Human Cytokine 48-Plex Discovery Assay), Example 2; format: in vivo; details: plasma 6 hrs after LPS
Description: as §1
The effects of LPS and 15u on the expression of 48 human cytokines were measured using Human Cytokine 48-Plex Discovery Assay (Eve Technologies) using plasma samples at 1:100 dilution. […] The results of this analysis are shown in FIG. 2 for 33 of 48 cytokines that were induced by LPS>2-fold (cytokine plots are shown in the order of fold induction by LPS). […] These included 14 mediators of cytokine storm listed in Table 1: GM-CSF, IFN-γ, IL-1 (α and β), IL-6, IL-8, IL-12 (p40 and p70), IL-18, MIG/CXCL9, MIP-1 (α and β) and TNF (α and β).

48 human cytokines [4] = assay: LPS-induced human cytokines in plasma of humanized mice (Human Cytokine 48-Plex Discovery Assay), Example 3; format: in vivo; details: for induction of human proinflammatory cytokines by LPS: 15u 30 mg/kg p.o. or BI-1347 10 mg/kg p.o., LPS 1 mg/kg i.p., plasma 6 hrs after LPS
Description: Mice were randomized into 6 groups (n=4-5), Group 1 being untreated control, Group 2 receiving 15u (a.k.a. SNX) (30 mg/kg p.o., administered as in example 2), Group 3 receiving LPS (1 mg/kg i.p.), Group 4 receiving LPS plus 15u administered 1 hr before LPS, Group 5 receiving LPS plus 15u administered 0.5 hr after LPS, and Group 6 receiving LPS plus CDK8/19 inhibitor BI-1347 (28) (10 mg/kg dissolved in 30% Propylene Glycol/70% PEG-400, p.o.) administered 1 hr before LPS. Mice were euthanized 6 hrs after LPS dosing and terminal blood samples were collected for cytokine analysis. As in Example 2, the effects of LPS and 15u on the expression of 48 human cytokines were measured using Human Cytokine 48-Plex Discovery Assay (Eve Technologies) using plasma samples at 1:100 dilution. The results of this analysis are shown in FIG. 5 for those cytokines that were induced by LPS. To assure more accurate assessment of effects of CDK8/19 inhibition on LPS-induced cytokines, 4 LPS-treated animals with low serum level (below 100 pg/mL) of IL-10, the cytokine whose LPS-mediated induction is not decreased by CDK8/19 inhibition, were excluded from the analysis (the low levels of cytokines in such animals are possibly due to insufficient administration of LPS). In this study, fewer cytokines (19 of 48) were induced by LPS than in Example 2, with many cytokines showing apparently higher expression levels in untreated mice possibly reflecting an inflammatory process that could have developed in humanized mice at the late time point (25-26 weeks) after the transplantation of CD34+ hematopoietic stem cells. Nevertheless, as in example 2, the induction of most of the LPS-induced cytokines was decreased by CDK8/19 inhibitor treatment (FIG. 5), including G-CSF, IFN-γ, IL-1 (α and β), IL-6, IL-8, MIG/CXCL9, MCP-1, MIP-1β and TNF (α and β) and IP-10. Among LPS-induced cytokines, only anti-inflammatory IL-10 was induced to a greater degree with than without CDK8/19 inhibitor treatment, an indication of anti-inflammatory activity. […]

32 mouse cytokines = assay: LPS-induced mouse cytokines in plasma of humanized mice (Mouse Cytokine 32-Plex Discovery Assay), Example 2; format: in vivo, humanized CIEA NOG-EXL mice; details: 30 mg/kg p.o. 1 hr before LPS; plasma 6 hrs after LPS
Description: as §1
We have also used the same plasma samples (at 1:100 dilution) to measure the expression of 32 mouse cytokines using Mouse Cytokine 32-Plex Discovery Assay (Eve Technologies).

[5] = system: mouse cytokines: IL-1β, IL-6, IL-10, MCP-1 and TNF-α; assay: LPS-induced cytokine expression in plasma of C57BL/6 mice (MSD U-plex custom panel); format: in vivo, C57BL/6 male mice; details: 30 mg/kg oral gavage 2 hrs prior to LPS 10 mg/kg i.p.; plasma 2 hrs and 6 hrs after LPS
Description: Cytokine storm was induced in C57BL/6 male mice by intraperitoneal (i.p.) injection of LPS (10 mg/kg). Two groups of LPS-treated mice (n=5) received 30 mg/kg 15u dissolved in 30% Propylene Glycol, 70% PEG-400 or vehicle control (5 mice per group), via oral gavage 2 hrs prior to LPS dosing. Blood was collected immediately before LPS dosing, 2 hrs after LPS and 6 hrs after LPS (at which time point the animals were euthanized). Plasma samples (1:100 dilution for 2 hr and 6 hr samples, 1:5 dilution for pre-LPS samples) were used to analyze the cytokines with the MSD U-plex custom panel for the following mouse cytokines: IL-1β, IL-6, IL-10, MCP-1 and TNF-α.

CN(C)C(=O)c1ccc(N2CCCN(c3ccnc4sc(C(N)=O)c(N)c34)CC2)cc1 [15u, 3-amino-4-(4-(4 (dimethylcarbamoyl)phenyl)-1,4-diazepan-1-yl)thieno[2,3-b]pyridine-2-carboxamide]
S(35) S-score (panel of 468 kinases; S(#)=(number of non-mutant kinases with % Ctrl<#)/(number tested)): less than 0.02 | S(10) S-score (panel of 468 kinases): < 0.004 | number of mouse cytokines with decreased RNA in spleen ([1]; 15u-treated G2 or G3 relative to G1): 3 of 27 | number of mouse cytokines (including TNF and IL-10) with elevated RNA in spleen ([1]; G2 and especially G3 relative to G1): 7 | number of human cytokines with decreased RNA amounts in spleen ([2]; 15u 30 mg/kg p.o. administered after LPS (G3) vs LPS alone (G1)): 15 of 26 | number of human cytokines with decreased RNA amounts in spleen ([2]; 15u 30 mg/kg p.o. administered before LPS (G2) vs LPS alone (G1)): 18 of 26 | number of the most strongly LPS-induced human cytokines whose induction was suppressed (48 human cytokines [3]; 30 mg/kg oral gavage 1 hr before LPS 1 mg/kg i.p.): 24 of 27 | LPS-induced human IP-10 (48 human cytokines [3]; 30 mg/kg p.o. 1 hr before LPS): not inhibited | LPS-induced human MCP-1 (48 human cytokines [3]; 30 mg/kg p.o. 1 hr before LPS): not inhibited | LPS-induced human anti-inflammatory IL-10 (48 human cytokines [3]; 30 mg/kg p.o. 1 hr before LPS): only borderline inhibition | over-induction of human IL-10 (48 human cytokines [3]; 30 mg/kg p.o. 1 hr before LPS): not over-induced | induction of 14 mediators of cytokine storm: GM-CSF, IFN-γ, IL-1 (α and β), IL-6, IL-8, IL-12 (p40 and p70), IL-18, MIG/CXCL9, MIP-1 (α and β), TNF (α and β) (48 human cytokines [3]; human cytokines, 30 mg/kg p.o. 1 hr before LPS): suppressed | suppression of proinflammatory cytokine induction, 15u administered 0.5 hours after LPS compared with 1 hour before LPS (48 human cytokines [4]; 30 mg/kg p.o., in most cases): stronger | induction of human proinflammatory cytokines by LPS (48 human cytokines [4]): suppressed | LPS-induced mouse IL-7 (32 mouse cytokines): weakly inhibited | LPS-induced mouse IL-10 (32 mouse cytokines): over-induced | effect on LPS-induced mouse cytokines (27 of 32 induced) (32 mouse cytokines): most of them were unaffected | effect on LPS-induced expression of the assayed cytokines (IL-1β, IL-6, IL-10, MCP-1, TNF-α) [5]: no significant effect

CN(C)C(=O)Cn1cc(-c2ccc(-c3cncc4ccccc34)cc2)cn1 [BI-1347, 2-(4-(4-(isoquinolin-4-yl)phenyl)-1H-pyrazol-1-yl)-N,N-dimethylacetamide, reference compound]
induction of human proinflammatory cytokines by LPS (48 human cytokines [4]): broadly suppressed
